Source: publication PMC10817917, “Alkyl deoxyglycoside-polymyxin combinations against critical priority carbapenem-resistant gram-negative bacteria” (Scientific Reports, 2024)
“Also recorded” adds a separate entry of the source. Where two headings read alike, the source gives them in different places.

Tests used:
[1] = system: Bacillus anthracis (Sterne, ovine and pathogenic forms), Enterococcus faecalis and Bacillus cereus; details: Gram-positive bacteria; cited from earlier work
[2] = PE vs phosphatidylcholine (PC); cited from earlier work
K. pneumoniae CQ1947 = assay: Broth microdilution MIC, glycosides with or without polymyxins; type: cell-based, Klebsiella pneumoniae; details: for MIC: Klebsiella pneumoniae, CQ1947
K. pneumoniae CQ4921 = assay: Broth microdilution MIC/MBC, glycosides with or without polymyxins; type: cell-based, Klebsiella pneumoniae; details: for MIC: Klebsiella pneumoniae, CQ4921
A. baumannii CQ4322 = assay: as above; type: cell-based, Acinetobacter baumannii; details: for MIC: Acinetobacter baumannii, CQ4322
[3] = alone, read-out: MICA (MIC of each compound individually)
[4] = combination with the lowest FICI
[5] = compound + colistin, lowest FICI

For `CCCCCCCCCCCCO[C@@H]1C[C@@H](O)[C@H](O)[C@@H](CO)O1` [Compound 4, dodecyl 2-deoxy-α-D-arabino-hexopyranoside], the MIC [1] is given as 12 to 386 µM, the “interaction with phosphatidylethanolamine (PE)” value [2] is given as “Non PE-binder; also recorded: limited affinity towards PE” and the “MIC of colistin in combination with the compound” value (shortened to “MIC … with the compound”) (K. pneumoniae CQ1947; Cpd conc. 0.4 μg/mL, strain F) is given as 0.5 µg/mL. The “MIC … with the compound” value (K. pneumoniae CQ1947; Cpd conc. 0.8 μg/mL, strain F) was 0.5 µg/mL, the “MIC … with the compound” value (K. pneumoniae CQ1947; Cpd conc. 3.125 μg/mL, strain F) was 0.5 µg/mL and the “MIC … with the compound” value (K. pneumoniae CQ1947; Cpd conc. 6.25 μg/mL, strain F) was 0.5 µg/mL. The “MIC … with the compound” value (K. pneumoniae CQ1947; Cpd conc. 12.5 μg/mL, strain F) was 0.5 µg/mL, the “MIC … with the compound” value (K. pneumoniae CQ1947; Cpd conc. […], strain F) was 0.5 µg/mL and the MIC (K. pneumoniae CQ1947; agent alone, no adjuvant (polymyxin conc. 0), strain F, read-out: MIC) was greater than 100 µg/mL. The MIC (K. pneumoniae CQ1947; [3]) was greater than 100 µg/mL, the “MIC of compound in combination with PMB” value (K. pneumoniae CQ1947; PMB 0.25 μg/mL, strain F) was greater than 100 µg/mL and the “MIC of compound in combination with PMB” value (K. pneumoniae CQ1947; PMB 0.5 μg/mL, strain F) was greater than 100 µg/mL. The “MIC of compound in combination with colistin” value (K. pneumoniae CQ1947; colistin 0.25 μg/mL, strain F) was greater than 100 µg/mL, the “MIC of compound in combination with colistin” value (K. pneumoniae CQ1947; colistin 0.5 μg/mL, strain F) was no more than 0.1 µg/mL and the “MICA(A + B) (MIC of compound in combination with colistin)” value (“MICA(A + B)” for short) (K. pneumoniae CQ1947; [4]) was 0.4 µg/mL. The “MICB(A + B) (MIC of colistin in combination with compound)” value (from here on “MICB(A + B)”) (K. pneumoniae CQ1947; [4]) was 0.5 µg/mL, the “Interpretation (of FICI)” value (K. pneumoniae CQ1947; compound + colistin) was “Indifferent (1.0 to 4.0 were indifferent)” and the FICI (K. pneumoniae CQ1947; [5]) was 1.002. For the same compound, the “MIC … with the compound” value (K. pneumoniae CQ4921; Cpd conc. 0.4 μg/mL, strain C) was 0.5 µg/mL, the “MIC … with the compound” value (K. pneumoniae CQ4921; Cpd conc. 0.8 μg/mL, strain C) was 0.5 µg/mL and the “MIC … with the compound” value (K. pneumoniae CQ4921; Cpd conc. 3.125 μg/mL, strain C) was 0.5 µg/mL. For the same compound, the “MIC … with the compound” value (K. pneumoniae CQ4921; Cpd conc. 6.25 μg/mL, strain C) was 0.5 µg/mL, the “MIC … with the compound” value (K. pneumoniae CQ4921; Cpd conc. 12.5 μg/mL, strain C) was 0.5 µg/mL and the “MIC … with the compound” value (K. pneumoniae CQ4921; Cpd conc. […], strain C) was 0.5 µg/mL. The MIC (K. pneumoniae CQ4921; agent alone, no adjuvant (polymyxin conc. 0), strain C, read-out: MIC) was greater than 100 µg/mL, the MIC (K. pneumoniae CQ4921; [3]) was greater than 100 µg/mL and the “MIC of compound in combination with PMB” value (K. pneumoniae CQ4921; PMB 0.25 μg/mL, strain C) was greater than 100 µg/mL. The “MIC of compound in combination with PMB” value (K. pneumoniae CQ4921; PMB 0.5 μg/mL, strain C) was 1.6 µg/mL, the “MIC of compound in combination with colistin” value (K. pneumoniae CQ4921; colistin 0.25 μg/mL, strain C) was greater than 100 µg/mL and the “MIC of compound in combination with colistin” value (K. pneumoniae CQ4921; colistin 0.5 μg/mL, strain C) was no more than 0.1 µg/mL. For the same compound, the “MICA(A + B)” value (K. pneumoniae CQ4921; [4]) was 0.4 µg/mL, the “MICB(A + B)” value (K. pneumoniae CQ4921; [4]) was 0.5 µg/mL and the “Interpretation (of FICI)” value (K. pneumoniae CQ4921; compound + colistin) was “Indifferent (1.0 to 4.0 were indifferent)”. The FICI (K. pneumoniae CQ4921; [5]) was 1.002, the MIC (A. baumannii CQ4322; agent alone, no adjuvant (polymyxin conc. 0), strain G, read-out: MIC) was greater than 100 µg/mL and the MIC (A. baumannii CQ4322; [3]) was greater than 100 µg/mL. The “MIC … with the compound” value (A. baumannii CQ4322; Cpd conc. 0.4 μg/mL, strain G) was 0.5 µg/mL, the “MIC … with the compound” value (A. baumannii CQ4322; Cpd conc. 0.8 μg/mL, strain G) was 0.5 µg/mL and the “MIC … with the compound” value (A. baumannii CQ4322; Cpd conc. 3.125 μg/mL, strain G) was 0.5 µg/mL. The “MIC … with the compound” value (A. baumannii CQ4322; Cpd conc. 6.25 μg/mL, strain G) was 0.5 µg/mL, the “MIC … with the compound” value (A. baumannii CQ4322; Cpd conc. 12.5 μg/mL, strain G) was 0.5 µg/mL and the “MIC … with the compound” value (A. baumannii CQ4322; Cpd conc. […], strain G) was 0.5 µg/mL. For the same compound, the “MIC of compound in combination with PMB” value (A. baumannii CQ4322; PMB 0.25 μg/mL, strain G) was greater than 100 µg/mL, the “MIC of compound in combination with colistin” value (A. baumannii CQ4322; colistin 0.25 μg/mL, strain G) was greater than 100 µg/mL and the “MIC of compound in combination with colistin” value (A. baumannii CQ4322; colistin 0.5 μg/mL, strain G) was no more than 0.1 µg/mL. The “MICA(A + B)” value (A. baumannii CQ4322; [4]) was 0.4 µg/mL, the “MICB(A + B)” value (A. baumannii CQ4322; [4]) was 0.5 µg/mL and the “Interpretation (of FICI)” value (A. baumannii CQ4322; compound + colistin) was “Indifferent (1.0 to 4.0 were indifferent)”. For the same compound, the FICI (A. baumannii CQ4322; [5]) was 1.002.
